Measured values from patent US11839609B1, “Substituted tetrahydroisoquinolines as anti-mitotic drug in triple negative breast cancer” (Florida A&M University, priority 2021, dated 2023).
pIC50: −log10 of the molar value.

What was measured:
[1] = system: triple negative breast cancer (TNBC); assay: Treatment of a TNBC patient (Example 1); assay type: in vivo, human; conditions: therapeutically effective amount
Description: A patient presents with a lump in their left breast. A biopsy of the mass is performed and the cells are found to lack estrogen or progesterone receptors and HER2 protein thus confirming a diagnosis of triple negative breast cancer (TNBC). The patient is administered a therapeutically effective amount of 4-Ethyl-N-(7-hydroxy-3,4-dihydroisoquinolin-2(1H)-yl) benzamide (GM-4-53) for a time period sufficient to inhibit cell proliferation. The patient is tested at regular intervals while the drug is being administered as well as after administration has stopped.

MDA-MB-231 cells [2] = assay: Cytotoxicity assay at high plating density, 24-36 h; assay type: cell-based, human; conditions: 36-hour toxicity assay, equal drug concentrations, 0.5×10^5 cells/well
Description: (§1) For MDA-MB-231 cells, both paclitaxel and GM-4-53 were dissolved in DMSO and […]. A stock solution for both compounds was prepped in HBSS. In brief, 96-well plates were seeded with cells (0.04×10^5/well) to a volume of 200 μL, to which drugs were added, and cell proliferation (as cell count) was evaluated at a 6-day endpoint, using Alamar blue. For Alamar blue testing, a working solution of resazurin prepared in sterile phosphate-buffered saline (PBS)-phenol red (0.5 mg/mL) was added (15% v/v) to each sample in a 96-well plate. Samples were returned to the incubator for 4-6 h, and the reduction in the dye (to resorufin, a fluorescent compound) caused by viable cells was quantitatively analyzed using a Synergy HTX multi-mode reader (Bio-Tek, Winooski, VT, USA), with excitation/emission wavelength settings at 550 nm/580 nm. Cell count was evaluated as % control, and the inhibitory growth (IG50) value was calculated by regression analysis. […] The cytostatic effects of MCF-7 and Ishikawa cell lines were determined using the CellTiter-Glo (CTG) luminescent cell viability assay, which is based on the direct determination of intracellular ATP level (determining the number of viable cells in culture based on the quantification of ATP present), which signals the presence of metabolically active cells. Luminescence results were read on TriLux Luminometer. […]

tubulin = assay: Tubulin polymerization/depolymerization; assay type: biochemical
Solubility = assay type: physicochemical
MDA-MB-231 cells [3] = assay: 3D tumor spheroid study; assay type: cell-based, human; conditions: GM-4-53 5 μg/mL, paclitaxel 1 μg/mL; drugs added day 14, images day 24
Description: MDA-MB-231 cells were plated in low-adhesion, round-bottom, sterile, 96-well plates at a cell density of (0.2×10^5/well), in 200 uL of cell culture media centrifuged at 1800×g for 3 min prior to incubation at 37° C. in 5% C02/atmosphere. For the first 3 days, cells were taken out and re-centrifuged at 1800×g×3 min. 3D spheroids were left to grow for 10 days. On day 14, experimental drugs were added, and images were captured on day 24.
(§2) 2D cell cultures were imaged to ascertain changes in morphological structure at the 6-day endpoint in MDA-MB-231 cells in the presence or absence of treatments. In brief, cells were fixed in 4% paraformaldehyde and incubated at 37° C. in 5% CO2/atmosphere for 15 min. After delicate removal of paraformaldehyde, sterile ultra-pure biological grade water containing 0.2% Triton X-100 was gently added to each well (100 uL) and returned to the incubator for 45 min. After gentle removal, a PBS solution containing propidium iodide (1 μg/mL) and Phalloidin-iFluor 488 Reagent (ab176753) was added to each well, according to the manufacturer's instructions Abcam (Cambridge, MA, USA), and images were captured on an inverted fluorescent microscope using the 10× and 25× fluo-objectives. 3D tumors were stained with fluorescein diacetate (live-cell dye) and countered imaged for morphology.

[4] = system: Ishikawa endometrial cancer cell line; assay: Cytostatic effect, CellTiter-Glo luminescent cell viability assay; assay type: cell-based, human; conditions: Southern Research Institute, FIG. 4
Description: (§3) The anti-proliferative activity of GM-4-53 on two additional cell lines was evaluated at the Southern Research Institute (SRI, Birmingham, Alabama, USA). There, the human MCF-7 breast cancer cell line was purchased from the NCI. The human Ishikawa endometrial cancer cell line was purchased from Sigma Aldrich. Both cell lines were cultured in phenol red-free RPMI-1640 (Hyclone) (500 mL), supplemented with L-glutamine-dipeptide (Hyclone) (5 mL), and 10% fetal bovine serum (Atlanta Biologicals) (50 mL).
(§4) For MDA-MB-231 cells, both paclitaxel and GM-4-53 were dissolved in DMSO and […]. A stock solution for both compounds was prepped in HBSS. In brief, 96-well plates were seeded with cells (0.04×10^5/well) to a volume of 200 μL, to which drugs were added, and cell proliferation (as cell count) was evaluated at a 6-day endpoint, using Alamar blue. […] Samples were returned to the incubator for 4-6 h, and the reduction in the dye (to resorufin, a fluorescent compound) caused by viable cells was quantitatively analyzed using a Synergy HTX multi-mode reader (Bio-Tek, Winooski, VT, USA), with excitation/emission wavelength settings at 550 nm/580 nm. Cell count was evaluated as % control, and the inhibitory growth (IG50) value was calculated by regression analysis. […] Luminescence results were read on TriLux Luminometer. […]

[5] = system: MCF-7 breast cancer cell line; assay: as above; assay type: cell-based, human; conditions: MCF-7, Southern Research Institute, FIG. 4
Description: as §3, §4

MDA-MB-231 cells [6] = assay: 2D imaging of cytoskeletal morphology (phalloidin/propidium iodide); assay type: cell-based, human; conditions: day 6; GM-4-53 5 μg/mL, paclitaxel 1 μg/mL
Description: as §2

MDA-MB-231 cells [7] = assay: Cell proliferation (cell count), 6-day endpoint, Alamar blue; assay type: cell-based, human; conditions: for concentration showing a complete blockage of cell proliferation with lack of cell toxicity: MDA-MB-231, chosen for microarray
Description: MDA-MB-231 cells (ATCC® HTB-26™) were used. These cells are human triple negative breast cancer cells, which we obtained from American Type Culture Collection (ATCC) (Manassas, VA, USA). MDA-MB-231 cells were initially brought up in ATCC-formulated Leibowitz's L-15 medium, supplemented with 10% fetal bovine serum (FBS) and penicillin/streptomycin (100 U/0.1 mg/ml). After confluence, the cells were sub-cultured and grown in Dulbecco's modified Eagle's medium (DMEM) containing phenol red, 7.5% FBS, 4 mM L-glutamine, 20 μM sodium pyruvate, and penicillin/streptomycin (100 U/0.1 mg/ml). Cells were maintained at 37° C. in 5% C02/atmosphere, and every 2-5 days, the medium was replaced and cells sub-cultured. The growth medium was used for all experiments conducted herein.
as §1, with “For Alamar blue testing, a working solution of resazurin prepared in sterile phosphate-buffered saline (PBS)-phenol red (0.5 mg/mL) was added (15% v/v) to each sample in a 96-well plate.” left out

MDA-MB-231 cells [8] = assay: Whole-transcriptome microarray (WT 2.1 Human), differentially expressed genes; assay type: cell-based; conditions: 36 h; for ID1, ID3 and ID4 transcripts: GM-4-53 more significant effects than paclitaxel; for DEGs shared by both drugs (overlap) / down-regulated DEGs vs. controls / upregulated DEGs vs. controls / differentially expressed genes (DEGs) of 48,226 genes analyzed: paclitaxel 1 μg/mL, GM-4-53 5 μg/mL; for differentially expressed genes (DEGs) of 48,226 genes analyzed: FC >2 or <−2, p and FDR p <0.05
Description: For MDA-MB-231 cells, both paclitaxel and GM-4-53 were dissolved in DMSO and […]. A stock solution for both compounds was prepped in HBSS. In brief, 96-well plates were seeded with cells (0.04×10^5/well) to a volume of 200 μL, to which drugs were added, and cell proliferation (as cell count) was evaluated at a 6-day endpoint, using Alamar blue. For Alamar blue testing, a working solution of resazurin prepared in sterile phosphate-buffered saline (PBS)-phenol red (0.5 mg/mL) was added (15% v/v) to each sample in a 96-well plate. Samples were returned to the incubator for 4-6 h, and the reduction in the dye (to resorufin, a fluorescent compound) caused by viable cells was quantitatively analyzed using a Synergy HTX multi-mode reader (Bio-Tek, Winooski, VT, USA), with excitation/emission wavelength settings at 550 nm/580 nm. Cell count was evaluated as % control, and the inhibitory growth (IG50) value was calculated by regression analysis. Cytotoxicity studies were carried out at equal dose concentrations as proliferation studies at a higher plating density (0.5×10^5/well), over 24-36 h. The cytostatic effects of MCF-7 and Ishikawa cell lines were determined using the CellTiter-Glo (CTG) luminescent cell viability assay, which is based on the direct determination of intracellular ATP level (determining the number of viable cells in culture based on the quantification of ATP present), which signals the presence of metabolically active cells. Luminescence results were read on TriLux Luminometer. Optimal concentrations for microarray were established by a lack of cell toxicity, at a concentration showing a complete blockage of cell proliferation; paclitaxel (1 μg/mL) and GM-4-53 (5 μg/mL). For microarray studies, cells were plated and treated in […] flasks for 36 h.
After the experimental 36-hour time point, the cells were scraped, washed three times in ice-cold HBSS, spun down, the supernatant removed, and the remaining pellet was rapidly frozen and stored at −80° C. Total RNA was isolated and purified using the Trizol/chloroform method. The RNA quality was assessed, and concentrations were equalized to 82 ng/μI in nuclease-free water. According to the GeneChip™ WT PLUS Reagent Manual for Whole Transcript (WT) expression arrays, whole transcriptome analysis was conducted. Briefly, RNA was reverse transcribed to first strand/second strand […]. The cRNA was purified and assessed for yield before the second cycle single-stranded cDNA synthesis, hydrolysis of RNA, and purification of the second cycle single-stranded cDNA. Subsequently, cDNA was assessed for yield, fragmented, labeled, and hybridized onto the arrays before being subjected to fluidics and imaging using the Gene Atlas (Affymetrix, ThermoFisher Scientific). The array data, quality control, and initial processing from CEL to CHP files were conducted using an expression console before data evaluation using the Affymetrix transcriptome analysis console (Wiki/Kegg pathways) and protein-protein interaction (PPI) String Database (String Consortium 2020)^1. The dataset has been deposited to NIH Gene Expression OmniBus.

Row | SMILES | cytotoxic effects (MDA-MB-231 cells [2]) | effect on 3D tumor spheroid (MDA-MB-231 cells [3]) | morphological changes of actin cytoskeleton (MDA-MB-231 cells [6]) | concentration showing a complete blockage of cell proliferation with lack of cell toxicity (MDA-MB-231 cells [7]) [µg/mL] | amphiregulin (AREG) and epiregulin (EREG) mRNA (MDA-MB-231 cells [8]) | expression of COX2 (MDA-MB-231 cells [8]) | expression of ICAM-1 (MDA-MB-231 cells [8]) | ID1, ID3 and ID4 transcripts (MDA-MB-231 cells [8]) | DEGs shared by both drugs (overlap) (MDA-MB-231 cells [8]) | down-regulated DEGs vs. controls (MDA-MB-231 cells [8]) | upregulated DEGs vs. controls (MDA-MB-231 cells [8]) | differentially expressed genes (DEGs) of 48,226 genes analyzed (MDA-MB-231 cells [8]) | also measured
1 | CCc1ccc(C(=O)NN2CCc3ccc(O)cc3C2)cc1 [GM-4-53, 4-Ethyl-N-(7-hydroxy-3,4-dihydroisoquinolin-2(1H)-yl)benzamide] | no cytotoxic effects | halts the growth and appears to penetrate the tumor core | abnormally large-shaped extended actin networks | 5 | significantly downregulated | downregulated the expression | reduced the expression | pronounced downregulation | 52 | 168 | 75 | 243 | patient outcome [1]: deemed in remission; effect on tubulin nucleation (tubulin): only mild effects; effect on tubulin polymerization/depolymerization processes (tubulin): failed to show any effect; solubility (Solubility): excellent solubility; IG50 (cytostatic growth-inhibitory effect) [4]: mid-to-high; IG50 (cytostatic growth-inhibitory effect) [5]: mid-to-high; pIC50 (MDA-MB-231 cells [7]; Homo sapiens, 144 h, MDA-MB-231, 6-day growth study, regression analysis, read-out: anti-proliferative IG50 growth inhibitory concentration): 6.58; oncogenic transcription factors (FOS, JUN-b, NFKB1a) driving oncostatin M (OSM) signaling (MDA-MB-231 cells [8]; vs untreated controls): general loss; KLRC3 transcript (MDA-MB-231 cells [8]; greater extent in GM-4-53): loss of the KLRC3 transcript
2 | CC(=O)O[C@H]1C(=O)[C@@]2(C)[C@H]([C@H](OC(=O)c3ccccc3)[C@]3(O)C[C@H](OC(=O)[C@H](O)[C@@H](NC(=O)c4ccccc4)c4ccccc4)C(C)=C1C3(C)C)[C@]1(OC(C)=O)CO[C@@H]1C[C@@H]2O [paclitaxel, reference compound] | no cytotoxic effects | halt the growth of the spheroid and central core | abnormally large-shaped extended actin networks | 1 | significantly downregulated | downregulated the expression | reduced the expression | pronounced downregulation | 52 | 45 | 108 | 153 | –
